Experimental data from EP4603105A1, “PHARMACEUTICAL COMPOSITION CONTAINING CYCLIC COMPOUND HAVING SELECTIVE KRAS INHIBITORY EFFECT AGAINST HRAS AND NRAS” (CHUGAI SEIYAKU KABUSHIKI KAISHA, priority 2022, dated 2024).
*1 amine or outer side, *2 acyl side, *3 side chain or, on linkers, in order; H or OH if unused. Where a SMILES comes first, the peptide text is derived from it. Bridges are numbered along the chain shown (N, C = ends). [ ]: non-standard residue; d: D form. The star is where a group is joined. hPhe(3-Cl-4-CF3) = N[C@@H](CCc1ccc(C(F)(F)F)c(Cl)c1)C(=O)O; X26 = CCCN([C@@H](Cc1ccc(F)cc1)C(=O)[*:2])[*:1]; X15 = CCCN([C@@H](Cc1ccccc1)C(=O)[*:2])[*:1]; NEtPhe(4-F) = CCN[C@@H](Cc1ccc(F)cc1)C(=O)O; NMePhe(4-F) = CN[C@@H](Cc1ccc(F)cc1)C(=O)O; NMeGly(cPent) = CN[C@H](C(=O)O)C1CCCC1; NEtPhe = CCN[C@@H](Cc1ccccc1)C(=O)O; NMeD = CN[C@@H](CC(=O)O)C(=O)O; NMeL = CN[C@@H](CC(C)C)C(=O)O; Morpholide = C1CN(*)CCO1; NMeA = CN[C@@H](C)C(=O)O; Ac5c = NC1(C(=O)O)CCCC1; Aze = O=C(O)[C@@H]1CCN1; Sar = CNCC(=O)O

Assays:
HRAS wild-type protein = HRAS wild-type protein (Homo sapiens, UniProt P01112); assay: Binding to HRAS by surface plasmon resonance (SPR), KD and KD ratio to KRAS; conditions: ratio of KD for HRAS wild-type protein to KD for KRAS
HRAS wild-type protein, sequence (P01112 whole entry): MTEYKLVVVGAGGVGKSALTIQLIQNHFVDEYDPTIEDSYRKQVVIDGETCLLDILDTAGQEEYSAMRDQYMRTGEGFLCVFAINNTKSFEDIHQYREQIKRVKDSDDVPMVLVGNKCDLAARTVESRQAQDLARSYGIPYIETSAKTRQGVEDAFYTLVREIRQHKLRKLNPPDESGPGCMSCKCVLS
Outline: (§1)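 Compound binding is evaluated by SPR single-cycle kinetics, with concentrations added intermittently from low to high for 75 s each. Target surfaces carry GDP-loaded biotinylated Avi-RAS at about 100–300 RU, regenerated after each cycle; temperature 30°C. A 1:1 binding model gives KD.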

[1] = tested on: human lung cancer strain NCI-H441; assay type: cell-based
Outline: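 Proliferation was scored by […] measured after the reagent was added to cultures kept at 37°C in 5% carbon dioxide.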

[2] = biological target: GDP-bound NRAS wild-type protein (Homo sapiens, UniProt P01111); assay: Binding to NRAS by surface plasmon resonance (SPR), KD and KD ratio to KRAS; conditions: ratio of KD for GDP-bound NRAS wild-type protein to KD for KRAS
GDP-bound NRAS wild-type protein, sequence (P01111 whole entry): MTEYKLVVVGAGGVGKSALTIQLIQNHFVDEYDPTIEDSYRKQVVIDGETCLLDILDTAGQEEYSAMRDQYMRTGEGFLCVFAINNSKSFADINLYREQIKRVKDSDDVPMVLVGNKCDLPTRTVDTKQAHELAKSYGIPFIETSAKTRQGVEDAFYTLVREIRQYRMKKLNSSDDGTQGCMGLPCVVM
Outline: as §1

Compound | HRAS /KRAS (HRAS wild-type protein) | IC50 [1] [nM] | NRAS /KRAS [2]
CC[C@H](C)[C@@H]1NC(=O)[C@H](CC(C)C)N(C)C(=O)C[C@@H](C(=O)N2CCOCC2)N(C)C(=O)[C@H](C2CCCC2)N(C)C(=O)C2(CCCC2)NC(=O)[C@@H]2CCCN2C(=O)[C@H](CCc2ccc(C(F)(F)F)c(Cl)c2)NC(=O)CN(C)C(=O)[C@H](Cc2ccc(F)cc2)N(CC)C(=O)CN(C)C(=O)CN(C)C1=O [PP0213] ([NMeL]I[Sar][Sar][NEtPhe(4-F)][Sar][hPhe(3-Cl-4-CF3)]P[Ac5c][NMeGly(cPent)][NMeD]-Morpholide; lactam N-11) | C (A compound having a KD ratio of 0.1 or more and less than 3 is denoted as C) | 10.3 | C (A compound having a KD ratio of 0.1 or more and less than 3 is denoted as C)
CCCN1C(=O)CN(C)C(=O)CN(C)C(=O)[C@H]([C@@H](C)CC)NC(=O)[C@H](CC(C)C)N(C)C(=O)C[C@@H](C(=O)N2CCOCC2)N(C)C(=O)[C@H](C2CCCC2)N(C)C(=O)C2(CCCC2)NC(=O)[C@@H]2CCCN2C(=O)[C@H](CCc2ccc(C(F)(F)F)c(Cl)c2)NC(=O)CN(C)C(=O)[C@@H]1Cc1ccc(F)cc1 [PP0214] ([NMeL]I[Sar][Sar][X26][Sar][hPhe(3-Cl-4-CF3)]P[Ac5c][NMeGly(cPent)][NMeD]-Morpholide; lactam N-11) | C (A compound having a KD ratio of 0.1 or more and less than 3 is denoted as C) | 5.4 | B (a compound having 3 or more and less than 10 is denoted as B)
CC[C@H](C)[C@@H]1NC(=O)[C@H](CC(C)C)N(C)C(=O)C[C@@H](C(=O)N2CCOCC2)N(C)C(=O)[C@H](C2CCCC2)N(C)C(=O)C2(CCCC2)NC(=O)[C@@H]2CCCN2C(=O)[C@H](CCc2ccc(C(F)(F)F)c(Cl)c2)NC(=O)CN(C)C(=O)[C@H](Cc2ccccc2)N(CC)C(=O)[C@@H]2CCN2C(=O)[C@H](C)N(C)C1=O [PP0215] ([NMeL]I[NMeA][Aze][NEtPhe][Sar][hPhe(3-Cl-4-CF3)]P[Ac5c][NMeGly(cPent)][NMeD]-Morpholide; lactam N-11) | C (A compound having a KD ratio of 0.1 or more and less than 3 is denoted as C) | 4.8 | C (A compound having a KD ratio of 0.1 or more and less than 3 is denoted as C)
CCCN1C(=O)[C@@H]2CCN2C(=O)[C@H](C)N(C)C(=O)[C@H]([C@@H](C)CC)NC(=O)[C@H](CC(C)C)N(C)C(=O)C[C@@H](C(=O)N2CCOCC2)N(C)C(=O)[C@H](C2CCCC2)N(C)C(=O)C2(CCCC2)NC(=O)[C@@H]2CCCN2C(=O)[C@H](CCc2ccc(C(F)(F)F)c(Cl)c2)NC(=O)CN(C)C(=O)[C@@H]1Cc1ccccc1 [PP0216] ([NMeL]I[NMeA][Aze][X15][Sar][hPhe(3-Cl-4-CF3)]P[Ac5c][NMeGly(cPent)][NMeD]-Morpholide; lactam N-11) | B (a compound having 3 or more and less than 10 is denoted as B) | 3 | C (A compound having a KD ratio of 0.1 or more and less than 3 is denoted as C)
CC[C@H](C)[C@@H]1NC(=O)[C@H](CC(C)C)N(C)C(=O)C[C@@H](C(=O)N2CCOCC2)N(C)C(=O)[C@H](C2CCCC2)N(C)C(=O)C2(CCCC2)NC(=O)[C@@H]2CCCN2C(=O)[C@H](CCc2ccc(C(F)(F)F)c(Cl)c2)NC(=O)CN(C)C(=O)[C@H](Cc2ccc(F)cc2)N(C)C(=O)[C@@H]2CCN2C(=O)[C@H](C)N(C)C1=O [PP0217] ([NMeL]I[NMeA][Aze][NMePhe(4-F)][Sar][hPhe(3-Cl-4-CF3)]P[Ac5c][NMeGly(cPent)][NMeD]-Morpholide; lactam N-11) | C (A compound having a KD ratio of 0.1 or more and less than 3 is denoted as C) | 18.1 | C (A compound having a KD ratio of 0.1 or more and less than 3 is denoted as C)
CC[C@H](C)[C@@H]1NC(=O)[C@H](CC(C)C)N(C)C(=O)C[C@@H](C(=O)N2CCOCC2)N(C)C(=O)[C@H](C2CCCC2)N(C)C(=O)C2(CCCC2)NC(=O)[C@@H]2CCCN2C(=O)[C@H](CCc2ccc(C(F)(F)F)c(Cl)c2)NC(=O)CN(C)C(=O)[C@H](Cc2ccc(F)cc2)N(CC)C(=O)[C@@H]2CCN2C(=O)[C@H](C)N(C)C1=O [PP0218] ([NMeL]I[NMeA][Aze][NEtPhe(4-F)][Sar][hPhe(3-Cl-4-CF3)]P[Ac5c][NMeGly(cPent)][NMeD]-Morpholide; lactam N-11) | C (A compound having a KD ratio of 0.1 or more and less than 3 is denoted as C) | 3.9 | C (A compound having a KD ratio of 0.1 or more and less than 3 is denoted as C)
